We go through 2 substances from US20220401468A1 (priority 2021, published 2022).

In data set [1] the test system is SARS-CoV-2 (USA-WA1/2020). The data set is classed as cell-based. The conditions noted are these: Vero-E6 cells, 400 PFU/well, viral titer from plaque assay at 24 h post-infection.
The conditions of data set [2]: human, in vivo; cited from earlier work.
The target in another data set is SARS-CoV-2 spike protein (Severe acute respiratory syndrome coronavirus 2, UniProt P0DTC2). The conditions noted are these: cited from earlier work.

Consider Heparin sodium salt, for which, in data set [1], the “IC50, SARS-CoV-2 infection” value amounted to 0.05 µg/mL. In data set [2], the probability of survival result was “increased the probability of survival” and the “risk of significant bleeding” value was 10-15%. Besides, the binding affinity entry on SARS-CoV-2 spike protein is “high-picomolar affinity”.
low-molecular-weight heparin: the “serum IL-6 levels” value in data set [2] is “lower serum IL-6 levels”.
